Test results reported in patent publication US8247401B2, “P2X3 receptor antagonists for treatment of pain” (Merck Sharp & Dohme Corp., priority 2007, dated 2012).
pIC50: −log10 of the molar value.

target: T1, human P2X3 (Homo sapiens, UniProt P56373); experiment: Intracellular Calcium Measurement to Assess Antagonist Affinity (FLIPR, Fluo-4); format: cell-based; conditions: Intracellular Calcium Measurement assay; agonist α,β-meATP at EC50
T1 construct: expressed in transfected cells
T1 sequence (P56373 1-397): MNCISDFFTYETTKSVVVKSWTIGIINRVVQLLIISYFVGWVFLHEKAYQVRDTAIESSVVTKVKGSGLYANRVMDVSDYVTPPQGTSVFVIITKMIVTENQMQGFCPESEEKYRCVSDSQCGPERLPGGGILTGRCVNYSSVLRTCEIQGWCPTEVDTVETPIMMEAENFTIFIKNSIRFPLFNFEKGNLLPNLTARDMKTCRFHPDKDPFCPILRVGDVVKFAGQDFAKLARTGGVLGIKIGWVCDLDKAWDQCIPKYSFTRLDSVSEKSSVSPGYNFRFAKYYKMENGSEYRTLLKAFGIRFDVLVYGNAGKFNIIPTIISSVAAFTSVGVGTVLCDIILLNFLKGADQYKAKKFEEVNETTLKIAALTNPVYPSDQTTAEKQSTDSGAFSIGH
Description: Generation of a Human P2X3 and P2X2/3 Stable Cell Line—Human P2X3 receptor cDNA (Accession number NM_002559) was subcloned as a 5′XhoI and 3′HindIII fragment into the expression vector pcDNA5/FRT (Invitrogen). Human P2X2 receptor cDNA (Accession number NM_174873) was subcloned as a 5′EcoRI and 3′NotI fragment into the expression vector pIRESneo2 (BD Biosciences Clontech). The human P2X3 expression construct was transfected using Lipofectamine 2000 (Invitrogen) into Flp-in—293 cells (Invitrogen) according to the manufacturer's directions. Cells positive for flp-mediated recombination of […] P2X3 were selected using 150 μg/ml hygromycin. The stable human P2X3 cell line was co-transfected with the human P2X2 expression construct using Lipofectamine 2000 as above and co-transfected cells selected using […] hygromycin and 1 mg/ml G418. The stable P2X3 cell line was propagated in DMEM, 10% FBS, 100 μg/ml hygromycin, and 100 units/ml penicillin and 100 μg/ml streptomycin, and maintained at 37° and 95% humidity. The stable P2X2/3 cell line was propagated as above with the addition of 500 μg/ml G418.
Intracellular Calcium Measurement to Assess Antagonist Affinity—A fluorescent imaging plate reader (FLIPR; Molecular Devices) was used to monitor intracellular calcium levels using the calcium-chelating dye Fluo-4 (Molecular Probes). The excitation and emission wavelengths used to monitor fluorescence were 488 nm and 530 nm, respectively. Cells expressing either human P2X3 or human P2X2/3 were plated at a density of 20,000 cells/well (20 μl/well) in 384-well black-walled plates approximately 20 hours before beginning the assay. On the day of the assay 20 μl of loading buffer (Hank's balanced salt solution, 2.5 mM CaCl2, 20 mM HEPES, 0.1% BSA, 2.5 mM probenecid, TR-40, Fluo-4, and 138 mM NMDG substituted for NaCl) is added and cells dye-loaded for 60 min in the dark at room temperature. Ten minutes prior to adding agonist, the antagonist was added in a volume of 10 μl and allowed to incubate at room temperature. During this period fluorescence data is collected at 3 sec intervals followed by 10 sec intervals. The agonist, α,β-meATP, is added at a 6× concentration ([α,β-meATP]final=EC50). Following agonist addition fluorescence was measured at 5 sec intervals and analyzed based on the increase in peak relative fluorescence units (RFU) compared to the basal fluorescence. Peak fluorescence was used to determine the inhibitory effect at each concentration of antagonist by the following equation: % Inhibition=100*(1−((RFU(drug)−RFU(control))/(RFU(DMSO only)−RFU(control)))) In vitro Electrophysiological Assay—Cells expressing human P2X3 receptors were grown to a confluence of 65-85% 20 to 32 hours prior to assay. […]

pIC50 | Structure (SMILES)
7.59 | C[C@@H](NC(=O)c1cc(-c2ccc(Cl)cn2)cc(C(C)(C)O)c1)c1ccc(C(F)(F)F)[n+]([O-])c1 [Example 4.539, 3-(5-Chloropyridin-2-yl)-5-(1-hydroxy-1-methylethyl)-N-{(1R)-1-[1-oxido-6-(trifluoromethyl)pyridin-3-yl]-ethyl}benzamide]
8.10 | Cc1ccc(-c2cc(C(=O)N[C@H](C)c3ccc(F)cn3)cc(-c3ncccc3F)c2)nc1 [Example 4.252, 3-(3-Fluoropyridin-2-yl)-N-[(1R)-1-(5-fluoropyridin-2-yl)ethyl]-5-(5-methylpyridin-2-yl)benzamide]
7.96 | Cc1ccc(-c2cc(C(=O)N[C@H](C)c3ncc(F)cc3F)cc(-c3nnc(C4CC4)n3C)c2)nc1 [Example 4.3]
7.70 | Cc1ccc(-c2cc(C(=O)NC(C)c3nnc[nH]3)cc(N3CCOCC3)c2)c(F)c1 (stereo in doubt) [Example 4.109, 2′-Fluoro-4′-methyl-5-morpholin-4-yl-N-[(1R)-1-(1H-1,2,4-triazol-3-yl)ethyl]biphenyl-3-carboxamide]
